Results from patent US20250034135A1, “ANTI-APOPTOTIC PROTEIN BCL-2 INHIBITOR, PHARMACEUTICAL COMPOSITION AND USES THEREOF” (HANGZHOU HEALZEN THERAPEUTICS CO., LTD., priority 2021, published 2025).

Biological target: BCL2 (Homo sapiens (Human), UniProt P10415)
Experiment: Molecular level activity test of anti-apoptotic protein BCL2 (HTRF, binding to Bim peptide)
Details: HTRF, binding of BCL2 to Bim peptide; read-out: BCL2 nM (inhibitory activity, IC50)
Method: The detection of the binding ability between anti-apoptotic protein BCL2 and pro-apoptotic protein Bim was performed using Homogeneous Time-Resolved Fluorescence technology. The reaction of this method occurred in a white shallow 384-well plate, with a total reaction volume of 10 μL. Specifically, it included 2 μL of the compound to be tested (2% DMSO), 4 μL His-tagged recombinant protein, and 4 μL Biotin-tagged BIM protein peptide. After 1 hour of reaction, 5 μL of each Anti-His and streptavidin-tagged XL665 antibody diluents diluted with a detection buffer were added. After incubating at room temperature for 4 hours, the values were read using the Envision multifunctional microplate reader to detect the effect of the compound to be tested on the binding ability of BCL2 to Bim protein peptides.

BCL2, sequence (P10415 whole entry): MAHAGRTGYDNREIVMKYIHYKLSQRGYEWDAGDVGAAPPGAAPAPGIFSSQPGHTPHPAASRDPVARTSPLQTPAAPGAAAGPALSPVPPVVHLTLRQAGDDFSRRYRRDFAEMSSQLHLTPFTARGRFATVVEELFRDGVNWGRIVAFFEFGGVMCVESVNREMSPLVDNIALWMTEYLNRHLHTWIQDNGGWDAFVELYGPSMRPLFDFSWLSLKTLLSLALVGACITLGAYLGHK

Structure (SMILES)	IC50
CC(C)c1ccccc1[C@@H]1CCCN1C1CC2(CCN(c3cc(Oc4cnc5[nH]ccc5c4)c(C(=O)NS(=O)(=O)c4cc([N+](=O)[O-])c(NCC5(F)CCN(CC(F)(F)F)CC5)c5[nH]cnc45)cn3)CC2)C1 [compound 031, (S)-4-((1H-pyrrolo[2,3-b]pyrid-5-yl)oxy)-N-((7-(((4-fluoro-1-(2,2,2-trifluoroethyl)piperid-4-yl)methyl)amino)-6-nitro-1H-benzo[d]imidazol-4-yl)sulfonyl)-6-(2-(2-(2-isopropylphenyl)pyrrolidin-1-yl)-7-azaspiro[3.5]non-7-yl) nicotinamide]	< 0.01 µM
CC(C)c1ccccc1[C@@H]1CCCN1C1CC2(CCN(c3cc(Oc4cnc5[nH]ccc5c4)c(C(=O)NS(=O)(=O)c4cc([N+](=O)[O-])c(NCC5(F)CCN(CC(F)(F)F)CC5)c5[nH]cnc45)cc3F)CC2)C1 [compound 032, (S)-2-((1H-pyrrolo[2,3-b]pyrid-5-yl)oxy)-5-fluoro-N-((7-(((4-fluoro-1-(2,2,2-trifluoroethyl)piperid-4-yl)methyl)amino)-6-nitro-1H-benzo[d]imidazol-4-yl)sulfonyl)-4-(2-(2-(2-isopropylphenyl)pyrrolidin-1-yl)-7-azaspiro[3.5]non-7-yl)benzamide]	< 0.01 µM
CC(C)c1ccccc1[C@@H]1CCCN1C1CC2(CCN(c3cc(Oc4cnc5[nH]ccc5c4)c(C(=O)NS(=O)(=O)c4cc([N+](=O)[O-])c(NCC5CCC(N(C)C)CC5)c5[nH]cnc45)cn3)CC2)C1 (stereo partly drawn) [compound 033, 4-((1H-pyrrolo[2,3-b]pyrid-5-yl)oxy)-N-((7-((((1S,4S)-4-(dimethylamino)cyclohexyl)methyl)amino)-6-nitro-1H-benzo[d]imidazol-4-yl)sulfonyl)-6-(2-((S)-2-(2-isopropylphenyl)pyrrolidin-1-yl)-7-azaspiro[3.5]non-7-yl) nicotinamide]	< 0.01 µM
CC(C)c1ccccc1[C@@H]1CCCN1C1CC2(CCN(c3cc(Oc4cnc5[nH]ccc5c4)c(C(=O)NS(=O)(=O)c4cc([N+](=O)[O-])c(NCC5CCC(N(C)C)CC5)c5[nH]cnc45)cc3F)CC2)C1 (stereo partly drawn) [compound 034, 2-((1H-pyrrolo[2,3-b]pyrid-5-yl)oxy)-N-((7-((((1S,4S)-4-(dimethylamino)cyclohexyl)methyl)amino)-6-nitro-1H-benzo[d]imidazol-4-yl)sulfonyl)-5-fluoro-4-(2-((S)-2-(2-isopropylphenyl)pyrrolidin-1-yl)-7-azaspiro[3.5]non-7-yl)benzamide]	< 0.01 µM
CC(C)c1ccccc1[C@@H]1CCCN1C1CC2(CCN(c3cc(Oc4cnc5[nH]ccc5c4)c(C(=O)NS(=O)(=O)c4cc([N+](=O)[O-])c(NC[C@H]5CC[C@](C)(O)CC5)c5c4ncn5C)cn3)CC2)C1 [compound 035, 4-((1H-pyrrolo[2,3-b]pyrid-5-yl)oxy)-N-((7-((((1r,4r)-4-hydroxy-4-methylcyclohexyl)methyl)amino)-1-methyl-6-nitro-1H-benzo[d]imidazol-4-yl)sulfonyl)-6-(2-((S)-2-(2-isopropylphenyl)pyrrolidin-1-yl)-7-azaspiro[3.5]non-7-yl) nicotinamide]	< 0.01 µM
CC(C)c1ccccc1[C@@H]1CCCN1C1CC2(CCN(c3cc(Oc4cnc5[nH]cc(F)c5c4)c(C(=O)NS(=O)(=O)c4cc([N+](=O)[O-])c(NC[C@H]5CC[C@](C)(O)CC5)c5[nH]cnc45)cn3)CC2)C1 [compound 037, 4-((3-fluoro-1H-pyrrolo[2,3-b]pyrid-5-yl)oxy)-N-((7-((((1r,4r)-4-hydroxy-4-methylcyclohexyl)methyl)amino)-6-nitro-1H-benzo[d]imidazol-4-yl)sulfonyl)-6-(2-((S)-2-(2-isopropylphenyl)pyrrolidin-1-yl)-7-azaspiro[3.5]non-7-yl) nicotinamide]	< 0.01 µM
COc1ccc(CN2CCN(C3CC4(CCN(c5ccc(C(=O)NS(=O)(=O)c6cc([N+](=O)[O-])c(NC[C@H]7CC[C@](C)(O)CC7)c7[nH]cnc67)c(Oc6cnc7[nH]ccc7c6)c5)CC4)C3)C(c3ccccc3C(C)C)C2)cc1 (stereo partly drawn) [compound 039, 2-((1H-pyrrolo[2,3-b]pyrid-5-yl)oxy)-N-((7-((((1r,4r)-4-hydroxy-4-methylcyclohexyl)methyl)amino)-6-nitro-1H-benzo[d]imidazol-4-yl)sulfonyl)-4-(2-(2-(2-isopropylphenyl)-4-(4-methoxybenzyl)piperazin-1-yl)-7-azaspiro[3.5]non-7-yl)benzamide]	< 0.01 µM
COc1ccc(CN2CCN(C3CC4(C3)CN(c3ccc(C(=O)NS(=O)(=O)c5cc([N+](=O)[O-])c(NC[C@H]6CC[C@](C)(O)CC6)c6[nH]cnc56)c(Oc5cnc6[nH]ccc6c5)c3)C4)C(c3ccccc3C(C)C)C2)cc1 (stereo partly drawn) [compound 040, 2-((1H-pyrrolo[2,3-b]pyrid-5-yl)oxy)-N-((7-((((1r,4r)-4-hydroxy-4-methylcyclohexyl)methyl)amino)-6-nitro-1H-benzo[d]imidazol-4-yl)sulfonyl)-4-(6-(2-(2-isopropylphenyl)-4-(4-methoxybenzyl)piperazin-1-yl)-2-azaspiro[3.3]hept-2-yl)benzamide]	< 0.01 µM
CC(C)c1ccccc1C1CN(C(C)C)CCN1C1CC2(CCN(c3ccc(C(=O)NS(=O)(=O)c4cc([N+](=O)[O-])c(NC[C@H]5CC[C@](C)(O)CC5)c5[nH]cnc45)c(Oc4cnc5[nH]ccc5c4)c3)CC2)C1 (stereo partly drawn) [compound 041, 2-((1H-pyrrolo[2,3-b]pyrid-5-yl)oxy)-N-((7-((((1r,4r)-4-hydroxy-4-methylcyclohexyl)methyl)amino)-6-nitro-1H-benzo[d]imidazol-4-yl)sulfonyl)-4-(2-(4-isopropyl-2-(2-isopropylphenyl)piperazin-1-yl)-7-azaspiro[3.5]non-7-yl)benzamide]	< 0.01 µM
CC(C)c1ccccc1C1CN(C(C)C)CCN1C1CC2(C1)CN(c1ccc(C(=O)NS(=O)(=O)c3cc([N+](=O)[O-])c(NCC4(F)CCN(C(C)C)CC4)c4[nH]cnc34)c(Oc3cnc4[nH]ccc4c3)c1)C2 (stereo not drawn) [compound 042, 2-((1H-pyrrolo[2,3-b]pyrid-5-yl)oxy)-N-((7-(((4-fluoro-1-isopropylpiperid-4-yl)methyl)amino)-6-nitro-1H-benzo[d]imidazol-4-yl)sulfonyl)-4-(6-(4-isopropyl-2-(2-isopropylphenyl)piperazin-1-yl)-2-azaspiro[3.3]hept-2-yl)benzamide]	< 0.01 µM
CC(C)c1ccccc1C1CN(C2CCOCC2)CCN1C1CC2(CCN(c3ccc(C(=O)NS(=O)(=O)c4cc([N+](=O)[O-])c(NC[C@H]5CC[C@](C)(O)CC5)c5[nH]cnc45)c(Oc4cnc5[nH]ccc5c4)c3)CC2)C1 (stereo partly drawn) [compound 043, 2-((1H-pyrrolo[2,3-b]pyrid-5-yl)oxy)-N-((7-((((1r,4r)-4-hydroxy-4-methylcyclohexyl)methyl)amino)-6-nitro-1H-benzo[d]imidazol-4-yl)sulfonyl)-4-(2-(2-(2-isopropylphenyl)-4-(tetrahydro-2H-pyran-4-yl)piperazin-1-yl)-7-azaspiro[3.5]non-7-yl)benzamide]	< 0.01 µM
CC(C)c1ccccc1C1CN(C2CCOCC2)CCN1C1CC2(C1)CN(c1ccc(C(=O)NS(=O)(=O)c3cc([N+](=O)[O-])c(NCC4(F)CCN(C(C)C)CC4)c4[nH]cnc34)c(Oc3cnc4[nH]ccc4c3)c1)C2 (stereo not drawn) [compound 044, 2-((1H-pyrrolo[2,3-b]pyrid-5-yl)oxy)-N-((7-(((4-fluoro-1-isopropylpiperid-4-yl)methyl)amino)-6-nitro-1H-benzo[d]imidazol-4-yl)sulfonyl)-4-(6-(2-(2-isopropylphenyl)-4-(tetrahydro-2H-pyran-4-yl)piperazin-1-yl)-2-azaspiro[3.3]hept-2-yl)benzamide]	< 0.01 µM
COc1ccc(CN2CCN(C3CC4(CCN(c5ccc(C(=O)NS(=O)(=O)c6cc([N+](=O)[O-])c(NC[C@H]7CC[C@](C)(O)CC7)c7[nH]cnc67)c(Oc6cnc7[nH]ccc7c6)c5)CC4)C3)C(c3ccccc3C(C)C)C2)cn1 (stereo partly drawn) [compound 045, 2-((1H-pyrrolo[2,3-b]pyrid-5-yl)oxy)-N-((7-((((1r,4r)-4-hydroxy-4-methylcyclohexyl)methyl)amino)-6-nitro-1H-benzo[d]imidazol-4-yl)sulfonyl)-4-(2-(2-(2-isopropylphenyl)-4-((6-methoxypyrid-3-yl)methyl)piperazin-1-yl)-7-azaspiro[3.5]non-7-yl)benzamide]	< 0.01 µM
COc1ccc(CN2CCN(C3CC4(C3)CN(c3ccc(C(=O)NS(=O)(=O)c5cc([N+](=O)[O-])c(NCC6(F)CCN(C(C)C)CC6)c6[nH]cnc56)c(Oc5cnc6[nH]ccc6c5)c3)C4)C(c3ccccc3C(C)C)C2)cc1 (stereo not drawn) [compound 046, 2-((1H-pyrrolo[2,3-b]pyrid-5-yl)oxy)-N-((7-(((4-fluoro-1-isopropylpiperid-4-yl)methyl)amino)-6-nitro-1H-benzo[d]imidazol-4-yl)sulfonyl)-4-(6-(2-(2-isopropylphenyl)-4-(4-methoxybenzyl)piperazin-1-yl)-2-azaspiro[3.3]hept-2-yl)benzamide]	< 0.01 µM
COc1ccc(CN2CCN(C3CC4(CCN(c5ccc(C(=O)NS(=O)(=O)c6cc([N+](=O)[O-])c(NCC7(F)CCOCC7)c7[nH]cnc67)c(Oc6cnc7[nH]ccc7c6)c5)CC4)C3)C(c3ccccc3C(C)C)C2)cc1 (stereo not drawn) [compound 047, 2-((1H-pyrrolo[2,3-b]pyrid-5-yl)oxy)-N-((7-(((4-fluorotetrahydro-2H-pyran-4-yl)methyl)amino)-6-nitro-1H-benzo[d]imidazol-4-yl)sulfonyl)-4-(2-(2-(2-isopropylphenyl)-4-(4-methoxybenzyl)piperazin-1-yl)-7-azaspiro[3.5]non-7-yl)benzamide]	< 0.01 µM
